Measurements reported in US20240228494A1, “COMPOUNDS” (PATHIOS THERAPEUTICS LIMITED, priority 2021, published 2024).
pIC50: −log10 of the molar value. Like-named read-outs stand apart in the source and are kept apart here.

Biological target: human recombinant GPR65 (Homo sapiens, UniProt Q8IYL9)
Assay: Human GPR65 cAMP HTRF antagonist assay
Format: cell-based
Description: In one preferred embodiment, the compound prevents the increase in cytoplasmic cAMP levels expected following GPR65 activation at acidic pH. This prevention of cAMP accumulation in turn prevents downstream signalling through ICER, as described above. The “Human GPR65 cyclic adenosine monophosphate (cAMP) Homogeneous Time Resolved Fluorescence (HTRF) antagonist assay”, or simply “cAMP assay”, as described in the accompanying examples, can be used to measure the potency of GPR65 modulators, which is expressed as the concentration of compound required to reduce the increase in cAMP concentration upon GPR65 activation by 50% (i.e. an IC50).
Human GPR65 Cyclic Adenosine Monophosphate (cAMP) Homogeneous Time Resolved Fluorescence (HTRF) Antagonist Assay Procedure
IC50 data was obtained by the following procedure:
1321N1 human astrocytoma cells stably expressing human recombinant GPR65 (1321N1-hrGPR65 cells, EuroscreenFast) were cultured according to the vendor's instructions.
Compounds were tested for their ability to antagonise GPR65, through measuring the concentration of cytoplasmic cAMP following treatment of the cells at a pH of 7.2 to activate GPR65 signalling and addition of the compound to be tested. The extent to which the expected rise in cAMP concentration upon GPR65 activation was suppressed by the added compound is indicative of its potency. The assay was carried out according to EuroscreenFast assay methodology as follows.
On the day of the assay, test compounds were added to 384-well, low volume, white microtiter plates by acoustic dispensing. KRH buffer (5 mM KCl, 1.25 mM MgSO4, 124 mM NaCl, 25 mM HEPES, 13.3 mM Glucose, 1.25 mM KH2PO4 and 1.45 mM CaCl2) was adjusted to pH 6.5, pH 7.6 and pH 8.4 by adding NaOH. 1321N1-hGPR65 cells were rapidly thawed and diluted in KRH, pH 7.6 prior to centrifugation at 300×g for 5 min and resuspension in assay buffer (KRH, pH 7.6, supplemented with 1 mM 3-isobutyl-1-methylxanthine (IBMX) and 200 μM ethylenediaminetetraacetic acid (EDTA)). Cells were added to assay plates at a density of 2,000 cells per well in a volume of 5 μl. Assay plates were briefly centrifuged at 100×g and then incubated at room temperature for 30 min. Cells were stimulated by the addition of 5 μL KRH, pH 6.5, to achieve an assay pH of 7.2, while control wells received 5 μl KRH, pH 8.4 to achieve an assay pH of 7.9. Assay plates were briefly centrifuged at 100×g and then incubated at room temperature for 30 min.
Accumulation of cAMP was detected by cAMP HTRF kit (Cisbio). d2-labeled cAMP and cryptate-labeled anti-cAMP antibody in Lysis and Detection Buffer (Cisbio) were added to assay plates, and the plates were incubated at room temperature for 1 h. HTRF measurements were performed using a Pherastar FSX instrument. Acceptor and donor emission signals were measured at 665 nm and 620 nm, respectively, and HTRF ratios were calculated as signal665 nm/signal620 nm×10^4. Data were normalised to high and low control values and fitted with 4-parameter logistic regression to determine hGPR65 IC50 values for the test compounds, which are shown in Table 1.

[1] = 1321N1-hrGPR65 cells, assay pH 7.2, suppression of cAMP rise, read-out: hGPR65 IC50

Sequence of human recombinant GPR65 (Q8IYL9 whole entry): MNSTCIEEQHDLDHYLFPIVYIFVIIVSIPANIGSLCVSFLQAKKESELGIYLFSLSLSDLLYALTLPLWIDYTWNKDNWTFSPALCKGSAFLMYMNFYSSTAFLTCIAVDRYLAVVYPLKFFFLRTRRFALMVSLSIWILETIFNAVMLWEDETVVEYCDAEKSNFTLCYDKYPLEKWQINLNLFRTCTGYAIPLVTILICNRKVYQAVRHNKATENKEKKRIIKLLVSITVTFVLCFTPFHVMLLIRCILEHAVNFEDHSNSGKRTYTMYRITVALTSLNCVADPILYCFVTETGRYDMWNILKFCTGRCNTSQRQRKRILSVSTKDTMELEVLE

Row | SMILES | pIC50 | pIC50 [1]
1 | S=C(Nc1ccc(Cl)c(Cl)c1)N1C2CCC1c1cncnc1C2 (racemic) [Compound 5, (±)-N-(3,4-dichlorophenyl)-6,7,8,9-tetrahydro-5H-5,8-epiminocyclo-hepta[d]pyrimidine-10-carbothioamide] | > 6.30 | 
2 | O=C(Oc1ccc(Cl)c(Cl)c1)N1C2CCC1c1cncnc1C2 (racemic) [Compound 10, 3,4-dichlorophenyl (±)-6,7,8,9-tetrahydro-5H-5,8-epiminocyclohepta-[d]pyrimidine-10-carboxylate] | 5.30 to 6.30 | 
3 | O=C(C(O)c1ccc(Cl)c(Cl)c1)N1[C@H]2CC[C@@H]1c1ccnc(F)c1C2 (single isomer, unassigned) [Compound 7] |  | < 5.30
4 | Fc1cc(C(F)(F)F)c(Br)cc1NC(=S)N1[C@H]2CC[C@@H]1c1ccnc(F)c1C2 [Compound 1, (5R,8S)—N-(5-Bromo-2-fluoro-4-(trifluoromethyl)phenyl)-1-fluoro-6,7,8,9-tetrahydro-5H-5,8-epiminocyclohepta[c]pyridine-10-carbothioamide] | > 6.30 | 
5 | O=c1cc2c(c[nH]1)[C@H]1CC[C@@H](C2)N1C(=S)Nc1cc(Cl)c(C(F)(F)F)cc1F [Compound 2, (6S,9R)-N-(5-Chloro-2-fluoro-4-(trifluoromethyl)phenyl)-3-oxo-3,5,6,7,8,9-hexahydro-2H-6,9-epiminocyclohepta[c]pyridine-10-carbothioamide] | > 6.30 | 
6 | Fc1cc(Cl)c(Cl)cc1NC(=S)N1[C@H]2CC[C@@H]1c1ccnc(F)c1C2 [Compound 3, (5R,8S)-N-(4,5-dichloro-2-fluorophenyl)-1-fluoro-6,7,8,9-tetrahydro-5H-5,8-epiminocyclo-hepta[c]pyridine-10-carbothioamide] | > 6.30 | 
7 | Fc1cc(C(F)(F)F)c(Cl)cc1NC(=S)N1[C@H]2CC[C@@H]1c1ccnc(F)c1C2 [Compound 4, (5R,8S)-N-(5-chloro-2-fluoro-4-(trifluoromethyl)phenyl)-1-fluoro-6,7,8,9-tetrahydro-5H-5,8-epiminocyclohepta[c]pyridine-10-carbothioamide] | > 6.30 | 
8 | N#C/N=C(\Nc1ccc(Cl)c(Cl)c1)N1[C@H]2CC[C@@H]1c1ccnc(F)c1C2 [Compound 6, (5R,8S,)—N′-Cyano-N-(3,4-dichlorophenyl)-1-fluoro-6,7,8,9-tetrahydro-5H-5,8-epiminocyclohepta[c]pyridine-10-carboximidamide] | > 6.30 | 
9 | O=C(Cc1ccc(Cl)c(Cl)c1)N1[C@H]2CC[C@@H]1c1ccnc(F)c1C2 [Compound 8, 2-(3,4-dichlorophenyl)-1-((5R,8S)-1-fluoro-6,7,8,9-tetrahydro-5H-5,8-epimino-cyclohepta[c]pyridin-10-yl)ethan-1-one] |  | 5.30 to 6.30
10 | Fc1cc(Cl)c(Cl)cc1CN1[C@H]2CC[C@@H]1c1ccnc(F)c1C2 [Compound 9, (5R,8S)-10-(4,5-dichloro-2-fluorobenzyl)-1-fluoro-6,7,8,9-tetrahydro-5H-5,8-epiminocyclohepta[c]pyridine] | 5.30 to 6.30 | 
11 | N#C/N=C(/Nc1cc(C(F)(F)F)c(Cl)cc1F)N1[C@H]2CC[C@@H]1c1ccnc(F)c1C2 [Compound 11, (5R,8S)-N-(4-Chloro-2-fluoro-5-(trifluoromethyl)phenyl)-N′-cyano-1-fluoro-6,7,8,9-tetrahydro-5H-5,8-epimino-cyclohepta[c]pyridine-10-carboximidamide] | > 6.30 | 
12 | N#C/N=C(/Nc1cc(Cl)c(Cl)cc1F)N1[C@H]2CC[C@@H]1c1ccnc(F)c1C2 [Compound 12, (5R,8S)-N′-cyano-N-(4,5-dichloro-2-fluorophenyl)-1-fluoro-6,7,8,9-tetrahydro-5H-5,8-epiminocyclohepta-[c]pyridine-10-carboximidamide] | > 6.30 | 
13 | O=C(C(=O)N1[C@H]2CC[C@@H]1c1ccnc(F)c1C2)c1ccc(Cl)c(Cl)c1 [Compound 13, 1-(3,4-Dichlorophenyl)-2-((5R,8S)-1-fluoro-6,7,8,9-tetrahydro-5H-5,8-epiminocyclohepta[c]pyridin-10-yl)ethane-1,2-dione] | 5.30 to 6.30 | 
14 | O/N=C(\Nc1cc(Cl)c(Cl)cc1F)N1[C@H]2CC[C@@H]1c1ccnc(F)c1C2 [Compound 15, (5R,8S)—N-(4,5-dichloro-2-fluorophenyl)-1-fluoro-N′-hydroxy-6,7,8,9-tetrahydro-5H-5,8-epiminocyclohepta[c]pyridine-10-carboximidamide] | > 6.30 | 
15 | CO/N=C(\Nc1cc(Cl)c(Cl)cc1F)N1[C@H]2CC[C@@H]1c1ccnc(F)c1C2 [Compound 16, (5R,8S)—N-(4,5-dichloro-2-fluorophenyl)-1-fluoro-N′-methoxy-6,7,8,9-tetrahydro-5H-5,8-epiminocyclohepta[c]pyridine-10-carboximidamide] | > 6.30 | 
16 | N=C(Nc1cc(Cl)c(Cl)cc1F)N1[C@H]2CC[C@@H]1c1ccnc(F)c1C2 [Compound 17, (5R,8S)—N′-(4,5-dichloro-2-fluorophenyl)-1-fluoro-6,7,8,9-tetrahydro-5H-5,8-epiminocyclohepta[c]pyridine-10-carboximidamide] |  | < 5.30
